Where two headings read alike, the source gives them in different places.
Experiments:
panel of 393 kinases [1] = target: T1, panel of 393 kinases (Homo sapiens, UniProt P54646); test: biochemical; details: CIMSS 10 μM, 10 μM ATP
T1 construct: purchased Reaction Biology Corporation

panel of 393 kinases [2] = target: T2, panel of 393 kinases (Homo sapiens, UniProt Q9NZJ5); test: biochemical; details: CIMSS 10 μM, 10 μM ATP
T2 construct: purchased Reaction Biology Corporation

panel of 393 kinases [3] = target: T3, panel of 393 kinases (Homo sapiens, UniProt P42345); test: biochemical; details: CIMSS 10 μM, 10 μM ATP
T3 construct: purchased Reaction Biology Corporation

panel of 393 kinases [4] = target: T4, panel of 393 kinases (Homo sapiens, UniProt P78527); test: biochemical; details: CIMSS 10 μM, 10 μM ATP
T4 construct: purchased Reaction Biology Corporation

panel of 393 kinases [5] = target: T5, panel of 393 kinases (Homo sapiens, UniProt Q13131); test: biochemical; details: CIMSS 10 μM, 10 μM ATP
T5 construct: purchased Reaction Biology Corporation
T5 sequence (Q13131 whole entry): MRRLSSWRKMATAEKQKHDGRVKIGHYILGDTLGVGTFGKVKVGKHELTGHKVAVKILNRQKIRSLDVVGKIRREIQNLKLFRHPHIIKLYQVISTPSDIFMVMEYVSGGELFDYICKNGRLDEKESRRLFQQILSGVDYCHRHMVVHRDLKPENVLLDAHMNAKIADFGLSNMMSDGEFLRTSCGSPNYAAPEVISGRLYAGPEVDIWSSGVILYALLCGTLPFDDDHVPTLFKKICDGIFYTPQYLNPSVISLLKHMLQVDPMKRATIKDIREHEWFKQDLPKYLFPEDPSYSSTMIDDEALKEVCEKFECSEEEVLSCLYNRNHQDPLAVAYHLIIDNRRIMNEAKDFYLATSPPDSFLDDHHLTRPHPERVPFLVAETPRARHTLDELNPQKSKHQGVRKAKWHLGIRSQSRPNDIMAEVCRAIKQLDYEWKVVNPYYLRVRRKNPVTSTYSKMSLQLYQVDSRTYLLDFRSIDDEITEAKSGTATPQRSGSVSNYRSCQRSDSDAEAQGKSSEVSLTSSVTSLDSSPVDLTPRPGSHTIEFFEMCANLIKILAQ

panel of 393 kinases [6] = target: T6, panel of 393 kinases (Homo sapiens, UniProt P19525); test: biochemical; details: CIMSS 10 μM, 10 μM ATP
T6 construct: purchased Reaction Biology Corporation
T6 sequence (P19525 whole entry): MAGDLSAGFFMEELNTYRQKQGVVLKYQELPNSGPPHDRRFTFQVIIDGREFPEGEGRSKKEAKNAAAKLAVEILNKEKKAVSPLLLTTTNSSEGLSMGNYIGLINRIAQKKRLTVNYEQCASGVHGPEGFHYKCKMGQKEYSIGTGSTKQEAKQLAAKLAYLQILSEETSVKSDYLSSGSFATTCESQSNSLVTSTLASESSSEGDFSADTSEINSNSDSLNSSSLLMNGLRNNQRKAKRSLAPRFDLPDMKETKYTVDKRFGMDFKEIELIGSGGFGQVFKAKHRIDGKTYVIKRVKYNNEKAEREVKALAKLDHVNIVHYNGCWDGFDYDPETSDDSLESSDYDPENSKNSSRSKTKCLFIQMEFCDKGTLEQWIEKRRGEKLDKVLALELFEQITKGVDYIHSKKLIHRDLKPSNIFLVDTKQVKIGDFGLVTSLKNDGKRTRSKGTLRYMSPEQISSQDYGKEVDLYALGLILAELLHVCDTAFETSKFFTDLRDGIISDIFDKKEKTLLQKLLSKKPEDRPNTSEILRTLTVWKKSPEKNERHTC

panel of 393 kinases [7] = target: T7, panel of 393 kinases (Homo sapiens, UniProt Q15119); test: biochemical; details: CIMSS 10 μM, 10 μM ATP
T7 construct: purchased Reaction Biology Corporation

panel of 393 kinases [8] = target: T8, panel of 393 kinases (Homo sapiens, UniProt Q15118); test: biochemical; details: CIMSS 10 μM, 10 μM ATP
T8 construct: purchased Reaction Biology Corporation
T8 sequence (Q15118 29-436): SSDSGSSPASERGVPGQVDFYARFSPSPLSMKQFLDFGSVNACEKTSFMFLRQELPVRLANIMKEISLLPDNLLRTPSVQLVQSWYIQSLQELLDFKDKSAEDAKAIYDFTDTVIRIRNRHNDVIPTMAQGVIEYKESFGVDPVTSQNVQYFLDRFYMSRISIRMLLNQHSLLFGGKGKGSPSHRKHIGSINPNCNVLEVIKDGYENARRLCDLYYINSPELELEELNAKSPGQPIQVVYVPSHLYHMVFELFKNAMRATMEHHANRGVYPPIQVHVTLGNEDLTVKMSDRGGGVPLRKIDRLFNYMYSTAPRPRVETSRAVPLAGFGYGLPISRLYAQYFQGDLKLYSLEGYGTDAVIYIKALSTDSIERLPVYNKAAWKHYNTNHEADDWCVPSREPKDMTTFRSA

panel of 393 kinases [9] = target: T9, panel of 393 kinases (Homo sapiens, UniProt Q9P2K8); test: biochemical; details: CIMSS 10 μM, 10 μM ATP
T9 construct: purchased Reaction Biology Corporation

panel of 393 kinases [10] = target: T10, panel of 393 kinases (Homo sapiens, UniProt Q16654); test: biochemical; details: CIMSS 10 μM, 10 μM ATP
T10 construct: purchased Reaction Biology Corporation
T10 sequence (Q16654 whole entry): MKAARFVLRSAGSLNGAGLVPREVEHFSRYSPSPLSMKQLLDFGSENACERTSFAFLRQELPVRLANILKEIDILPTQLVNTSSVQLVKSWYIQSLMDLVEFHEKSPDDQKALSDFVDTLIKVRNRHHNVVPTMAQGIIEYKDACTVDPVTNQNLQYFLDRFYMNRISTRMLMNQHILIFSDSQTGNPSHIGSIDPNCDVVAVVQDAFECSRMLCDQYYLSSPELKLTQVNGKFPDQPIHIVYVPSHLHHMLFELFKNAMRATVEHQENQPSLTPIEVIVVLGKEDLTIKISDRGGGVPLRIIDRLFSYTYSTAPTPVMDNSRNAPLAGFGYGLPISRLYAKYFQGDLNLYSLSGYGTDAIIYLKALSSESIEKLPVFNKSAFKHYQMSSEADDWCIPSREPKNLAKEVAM

panel of 393 kinases [11] = target: T11, panel of 393 kinases (Homo sapiens, UniProt O00418); test: biochemical; details: CIMSS 10 μM, 10 μM ATP
T11 construct: purchased Reaction Biology Corporation
T11 sequence (O00418 whole entry): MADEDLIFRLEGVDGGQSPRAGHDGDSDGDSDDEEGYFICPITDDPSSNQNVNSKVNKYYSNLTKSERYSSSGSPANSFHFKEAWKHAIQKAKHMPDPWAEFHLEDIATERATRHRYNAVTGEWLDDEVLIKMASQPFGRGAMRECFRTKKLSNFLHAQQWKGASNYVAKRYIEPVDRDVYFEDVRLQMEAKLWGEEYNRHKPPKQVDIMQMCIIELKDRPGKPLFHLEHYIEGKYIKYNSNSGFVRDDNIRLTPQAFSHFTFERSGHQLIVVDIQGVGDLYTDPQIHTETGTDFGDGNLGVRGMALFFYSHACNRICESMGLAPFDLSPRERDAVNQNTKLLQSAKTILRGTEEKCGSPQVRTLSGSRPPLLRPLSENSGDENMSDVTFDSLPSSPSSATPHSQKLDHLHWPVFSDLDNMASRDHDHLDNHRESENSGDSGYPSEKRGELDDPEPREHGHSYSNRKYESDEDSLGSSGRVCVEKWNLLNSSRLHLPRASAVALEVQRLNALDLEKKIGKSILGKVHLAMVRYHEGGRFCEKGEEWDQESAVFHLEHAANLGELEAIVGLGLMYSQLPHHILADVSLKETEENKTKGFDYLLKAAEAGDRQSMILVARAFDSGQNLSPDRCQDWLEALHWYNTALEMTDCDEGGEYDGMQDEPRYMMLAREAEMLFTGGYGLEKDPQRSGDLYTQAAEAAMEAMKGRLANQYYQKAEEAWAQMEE

panel of 393 kinases [12] = target: T12, panel of 393 kinases (Homo sapiens, UniProt Q15120); test: biochemical; details: CIMSS 10 μM, 10 μM ATP
T12 construct: purchased Reaction Biology Corporation
T12 sequence (Q15120 whole entry): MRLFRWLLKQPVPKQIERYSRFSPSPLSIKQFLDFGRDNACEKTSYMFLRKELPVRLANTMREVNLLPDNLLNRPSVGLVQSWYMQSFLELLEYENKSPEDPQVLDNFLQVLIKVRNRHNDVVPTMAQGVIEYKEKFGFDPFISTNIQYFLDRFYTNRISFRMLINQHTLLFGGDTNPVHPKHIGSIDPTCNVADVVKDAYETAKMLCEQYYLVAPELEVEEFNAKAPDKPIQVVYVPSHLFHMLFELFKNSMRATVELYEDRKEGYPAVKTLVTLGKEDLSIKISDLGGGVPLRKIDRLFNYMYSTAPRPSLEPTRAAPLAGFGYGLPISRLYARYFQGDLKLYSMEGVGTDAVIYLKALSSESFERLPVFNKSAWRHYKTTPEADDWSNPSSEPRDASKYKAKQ

intracellular Ca2+ = test: Calcium kinetic measurements (Fura-2) after HSV exposure; type: cell-based, human; details: 10 μM, HaCat
Method: The cells were then washed, lysed and Western blots of cell lysates prepared and probed with a mAb to gD as a marker of cell-bound virus and anti-3-actin as a loading control. […] Representative responses are shown for the first 30 minutes (left) and the mean calcium released over the first 3 minutes and then the extended response in the first hour following viral exposure were calculated from 4 wells in 3 independent experiments, each containing 5×10^4 cells (right). Asterisks indicate statistically significant differences by ANOVA (*, p<0.05, ** p<0.01, *** p<0.001) relative to control cells (mock-infected, DMSO). […] Nuclei were stained blue with DAPI. Images are representative of 2 independent experiments. […] Nuclei are stained blue (DAPI). Images were obtained with ZeissLive/DuoScan (objective 100×1.4, bar=10 μm) are representative of 2 independent experiments; quantification is shown in FIG. 11.
The cells were then transferred to SpectraMax® MF^e temperature-regulated chamber at 37° C. […] An intracellular calibration was performed with each experiment by determining the fluorescence ratio (340:380) in the presence of Ca-free 10 mM K2EGTA buffer (Rmin) and 10 mM CaEGTA buffer containing 10 μM ionomycin (Rmax) (C-3008, Calcium Calibration Buffer Kit #1, Invitrogen Molecular Probes™).

T1 sequence (P54646 whole entry): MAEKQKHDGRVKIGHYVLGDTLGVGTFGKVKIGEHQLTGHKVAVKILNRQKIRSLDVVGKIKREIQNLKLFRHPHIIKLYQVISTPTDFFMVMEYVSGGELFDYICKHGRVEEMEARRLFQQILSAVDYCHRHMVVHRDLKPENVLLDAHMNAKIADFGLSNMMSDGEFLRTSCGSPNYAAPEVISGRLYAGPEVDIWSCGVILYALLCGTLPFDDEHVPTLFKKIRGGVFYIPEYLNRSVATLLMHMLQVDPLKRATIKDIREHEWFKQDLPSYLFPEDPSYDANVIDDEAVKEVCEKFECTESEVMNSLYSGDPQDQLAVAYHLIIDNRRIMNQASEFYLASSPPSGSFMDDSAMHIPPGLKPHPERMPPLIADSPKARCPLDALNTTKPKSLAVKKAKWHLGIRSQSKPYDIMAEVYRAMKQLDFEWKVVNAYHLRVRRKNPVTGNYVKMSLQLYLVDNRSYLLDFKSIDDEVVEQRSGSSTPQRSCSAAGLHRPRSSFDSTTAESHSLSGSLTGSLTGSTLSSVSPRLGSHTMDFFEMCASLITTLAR
T2 sequence (Q9NZJ5 30-1116): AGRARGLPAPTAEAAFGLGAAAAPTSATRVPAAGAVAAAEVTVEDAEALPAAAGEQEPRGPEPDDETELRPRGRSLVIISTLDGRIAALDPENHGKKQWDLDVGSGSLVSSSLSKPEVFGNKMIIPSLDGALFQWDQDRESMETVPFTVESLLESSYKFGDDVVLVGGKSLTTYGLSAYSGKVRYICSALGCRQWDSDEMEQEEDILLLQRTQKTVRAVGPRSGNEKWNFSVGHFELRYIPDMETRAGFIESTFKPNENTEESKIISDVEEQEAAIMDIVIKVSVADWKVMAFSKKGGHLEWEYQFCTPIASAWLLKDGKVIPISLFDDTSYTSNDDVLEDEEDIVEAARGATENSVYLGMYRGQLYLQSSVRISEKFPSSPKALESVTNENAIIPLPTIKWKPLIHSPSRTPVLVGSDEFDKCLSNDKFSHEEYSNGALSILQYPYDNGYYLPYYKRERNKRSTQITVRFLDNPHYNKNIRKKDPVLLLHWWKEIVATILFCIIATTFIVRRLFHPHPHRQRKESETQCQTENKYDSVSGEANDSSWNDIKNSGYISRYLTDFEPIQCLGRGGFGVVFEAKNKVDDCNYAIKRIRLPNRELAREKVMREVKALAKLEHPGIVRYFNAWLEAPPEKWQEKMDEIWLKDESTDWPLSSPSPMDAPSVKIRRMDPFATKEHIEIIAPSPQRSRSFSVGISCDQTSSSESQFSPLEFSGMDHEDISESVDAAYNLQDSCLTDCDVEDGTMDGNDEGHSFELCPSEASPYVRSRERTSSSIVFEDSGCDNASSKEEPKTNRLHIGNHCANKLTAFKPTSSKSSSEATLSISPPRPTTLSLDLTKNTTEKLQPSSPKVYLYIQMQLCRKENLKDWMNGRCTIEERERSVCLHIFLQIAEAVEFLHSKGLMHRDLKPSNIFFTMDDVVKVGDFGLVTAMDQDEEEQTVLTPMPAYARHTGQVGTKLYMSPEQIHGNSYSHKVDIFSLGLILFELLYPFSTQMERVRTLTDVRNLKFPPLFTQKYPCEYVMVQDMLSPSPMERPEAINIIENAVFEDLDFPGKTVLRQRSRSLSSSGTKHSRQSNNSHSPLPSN

In the case of `CO[C@@H]1[C@H](N(C)C(=O)CCC(=O)NCc2cn(CCCS(=O)(=O)[O-])nn2)C[C@H]2O[C@]1(C)n1c3ccccc3c3c4c(c5c6ccccc6n2c5c31)C(=O)NC4.[Na+]` [CIMSS], the remaining activity at 10 µM (panel of 393 kinases [1]; read-out: % Enzyme Activity (relative to DMSO controls) CIMSS (10 μM) Data 1, kinase AMPK (A2/B1/G3), Data 1) was 0.67%, the remaining activity at 10 µM (panel of 393 kinases [1]; read-out: % Enzyme Activity (relative to DMSO controls) CIMSS (10 μM) Data 1, kinase AMPK(A2/B1/G1), Data 1) was 0.76% and the remaining activity at 10 µM (panel of 393 kinases [1]; read-out: % Enzyme Activity (relative to DMSO controls) CIMSS (10 μM) Data 1, kinase AMPK(A2/B2/G1), Data 1) was 0.34%. For the same compound, the remaining activity at 10 µM (panel of 393 kinases [1]; read-out: % Enzyme Activity (relative to DMSO controls) CIMSS (10 μM) Data 1, kinase AMPK(A2/B2/G2), Data 1) was 0.73%, the remaining activity at 10 µM (panel of 393 kinases [1]; read-out: % Enzyme Activity (relative to DMSO controls) CIMSS (10 μM) Data 1, kinase AMPK(A2/B2/G3), Data 1) was 0.63% and the remaining activity at 10 µM (panel of 393 kinases [1]; read-out: % Enzyme Activity (relative to DMSO controls) CIMSS (10 μM) Data 2, kinase AMPK (A2/B1/G3), Data 2) was 0.59%. For the same compound, the remaining activity at 10 µM (panel of 393 kinases [1]; read-out: % Enzyme Activity (relative to DMSO controls) CIMSS (10 μM) Data 2, kinase AMPK(A2/B1/G1), Data 2) was 0.64%, the remaining activity at 10 µM (panel of 393 kinases [1]; read-out: % Enzyme Activity (relative to DMSO controls) CIMSS (10 μM) Data 2, kinase AMPK(A2/B2/G1), Data 2) was 0.23% and the remaining activity at 10 µM (panel of 393 kinases [1]; read-out: % Enzyme Activity (relative to DMSO controls) CIMSS (10 μM) Data 2, kinase AMPK(A2/B2/G2), Data 2) was 0.63%. For the same compound, the remaining activity at 10 µM (panel of 393 kinases [1]; read-out: % Enzyme Activity (relative to DMSO controls) CIMSS (10 μM) Data 2, kinase AMPK(A2/B2/G3), Data 2) was 0.61%, the remaining activity at 10 µM (panel of 393 kinases [2]; read-out: % Enzyme Activity (relative to DMSO controls) CIMSS (10 μM) Data 1, kinase EIF2AK3, Data 1) was 61.6% and the remaining activity at 10 µM (panel of 393 kinases [2]; read-out: % Enzyme Activity (relative to DMSO controls) CIMSS (10 μM) Data 2, kinase EIF2AK3, Data 2) was 60.2%. The remaining activity at 10 µM (panel of 393 kinases [3]; read-out: % Enzyme Activity (relative to DMSO controls) CIMSS (10 μM) Data 1, kinase mTOR/FRAP1, Data 1) was 112%, the remaining activity at 10 µM (panel of 393 kinases [3]; read-out: % Enzyme Activity (relative to DMSO controls) CIMSS (10 μM) Data 2, kinase mTOR/FRAP1, Data 2) was 108% and the remaining activity at 10 µM (panel of 393 kinases [4]; read-out: % Enzyme Activity (relative to DMSO controls) CIMSS (10 μM) Data 1, kinase DNA-PK, Data 1) was 98.2%. The remaining activity at 10 µM (panel of 393 kinases [4]; read-out: % Enzyme Activity (relative to DMSO controls) CIMSS (10 μM) Data 2, kinase DNA-PK, Data 2) was 95.8%, the remaining activity at 10 µM (panel of 393 kinases [5]; read-out: % Enzyme Activity (relative to DMSO controls) CIMSS (10 μM) Data 1, kinase AMPK(A1/B1/G1), Data 1) was 1.14% and the remaining activity at 10 µM (panel of 393 kinases [5]; read-out: % Enzyme Activity (relative to DMSO controls) CIMSS (10 μM) Data 1, kinase AMPK(A1/B1/G2), Data 1) was 1.46%. The remaining activity at 10 µM (panel of 393 kinases [5]; read-out: % Enzyme Activity (relative to DMSO controls) CIMSS (10 μM) Data 1, kinase AMPK(A1/B1/G3), Data 1) was 0.22%, the remaining activity at 10 µM (panel of 393 kinases [5]; read-out: % Enzyme Activity (relative to DMSO controls) CIMSS (10 μM) Data 1, kinase AMPK(A1/B2/G1), Data 1) was 0.73% and the remaining activity at 10 µM (panel of 393 kinases [5]; read-out: % Enzyme Activity (relative to DMSO controls) CIMSS (10 μM) Data 2, kinase AMPK(A1/B1/G1), Data 2) was 1.14%. The remaining activity at 10 µM (panel of 393 kinases [5]; read-out: % Enzyme Activity (relative to DMSO controls) CIMSS (10 μM) Data 2, kinase AMPK(A1/B1/G2), Data 2) was 1.23%, the remaining activity at 10 µM (panel of 393 kinases [5]; read-out: % Enzyme Activity (relative to DMSO controls) CIMSS (10 μM) Data 2, kinase AMPK(A1/B1/G3), Data 2) was 0.07% and the remaining activity at 10 µM (panel of 393 kinases [5]; read-out: % Enzyme Activity (relative to DMSO controls) CIMSS (10 μM) Data 2, kinase AMPK(A1/B2/G1), Data 2) was 0.57%. The remaining activity at 10 µM (panel of 393 kinases [6]; read-out: % Enzyme Activity (relative to DMSO controls) CIMSS (10 μM) Data 1, kinase EIF2AK2, Data 1) was 9.89%, the remaining activity at 10 µM (panel of 393 kinases [6]; read-out: % Enzyme Activity (relative to DMSO controls) CIMSS (10 μM) Data 2, kinase EIF2AK2, Data 2) was 9.34% and the remaining activity at 10 µM (panel of 393 kinases [7]; read-out: % Enzyme Activity (relative to DMSO controls) CIMSS (10 μM) Data 1, kinase PDK2/PDHK2, Data 1) was 95.5%. For the same compound, the remaining activity at 10 µM (panel of 393 kinases [7]; read-out: % Enzyme Activity (relative to DMSO controls) CIMSS (10 μM) Data 2, kinase PDK2/PDHK2, Data 2) was 94%, the remaining activity at 10 µM (panel of 393 kinases [8]; read-out: % Enzyme Activity (relative to DMSO controls) CIMSS (10 μM) Data 1, kinase PDK1/PDHK1, Data 1) was 97.2% and the remaining activity at 10 µM (panel of 393 kinases [8]; read-out: % Enzyme Activity (relative to DMSO controls) CIMSS (10 μM) Data 2, kinase PDK1/PDHK1, Data 2) was 96.8%. The remaining activity at 10 µM (panel of 393 kinases [9]; read-out: % Enzyme Activity (relative to DMSO controls) CIMSS (10 μM) Data 1, kinase EIF2AK4, Data 1) was 9.5%, the remaining activity at 10 µM (panel of 393 kinases [9]; read-out: % Enzyme Activity (relative to DMSO controls) CIMSS (10 μM) Data 2, kinase EIF2AK4, Data 2) was 9.39% and the remaining activity at 10 µM (panel of 393 kinases [10]; read-out: % Enzyme Activity (relative to DMSO controls) CIMSS (10 μM) Data 1, kinase PDK4/PDHK4, Data 1) was 93.2%. The remaining activity at 10 µM (panel of 393 kinases [10]; read-out: % Enzyme Activity (relative to DMSO controls) CIMSS (10 μM) Data 2, kinase PDK4/PDHK4, Data 2) was 93%, the remaining activity at 10 µM (panel of 393 kinases [11]; read-out: % Enzyme Activity (relative to DMSO controls) CIMSS (10 μM) Data 1, kinase EEF2K, Data 1) was 99.5% and the remaining activity at 10 µM (panel of 393 kinases [11]; read-out: % Enzyme Activity (relative to DMSO controls) CIMSS (10 μM) Data 2, kinase EEF2K, Data 2) was 97%. The remaining activity at 10 µM (panel of 393 kinases [12]; read-out: % Enzyme Activity (relative to DMSO controls) CIMSS (10 μM) Data 1, kinase PDK3/PDHK3, Data 1) was 96.4%, the remaining activity at 10 µM (panel of 393 kinases [12]; read-out: % Enzyme Activity (relative to DMSO controls) CIMSS (10 μM) Data 2, kinase PDK3/PDHK3, Data 2) was 94.8% and the “extended Ca2+ release (first hour pi)” value (intracellular Ca2+) was “significant reduction”. For the same compound, the “initial Ca2+ transient (first three minutes following HSV exposure)” value (intracellular Ca2+) was “did not block”.

— US20250025473A1 (priority 2021, published 2025)
